According to PubChem BioAssay AID1963864 (Molecular Pharmacology Branch, DTP, NCI, 2024):

System: KRAS PDC multicell spheroid viability
Experiment: Anticancer human tumor 521955-158-R6-J3-PDC patient-derived pancreatic carcinoma cell line growth inhibition [KRAS2]
Settings: for IC50: curve of first compound; for viability, T/C: stronger effect = lower value
Summary of the method: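 Combination screen of spheroid viability in tumor-cell co-cultures with endothelial (HUVEC) and mesenchymal stem cell stroma. Each agent was tested in half-log dilutions, topping at clinical Cmax or at 10 microM without a known Cmax.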

[1] = second compound 0.1 µM, first compound 0.000316 µM
[2] = second compound 0.1 µM, first compound 0.001 µM
[3] = second compound 0.1 µM, first compound 0.00316 µM
[4] = second compound 0.1 µM, first compound 0.01 µM
[5] = second compound 0.1 µM, first compound 0.0316 µM
[6] = second compound 0.316 µM, first compound 0.000316 µM
[7] = second compound 0.316 µM, first compound 0.001 µM
[8] = second compound 0.316 µM, first compound 0.00316 µM
[9] = second compound 0.316 µM, first compound 0.01 µM
[10] = second compound 0.316 µM, first compound 0.0316 µM
[11] = second compound 1 µM, first compound 0.000316 µM
[12] = second compound 1 µM, first compound 0.001 µM
[13] = second compound 1 µM, first compound 0.00316 µM
[14] = second compound 1 µM, first compound 0.01 µM
[15] = second compound 1 µM, first compound 0.0316 µM
[16] = second compound 3.16 µM, first compound 0.000316 µM
[17] = second compound 3.16 µM, first compound 0.001 µM
[18] = second compound 3.16 µM, first compound 0.00316 µM
[19] = second compound 3.16 µM, first compound 0.01 µM
[20] = second compound 3.16 µM, first compound 0.0316 µM
[21] = second compound 10 µM, first compound 0.000316 µM
[22] = second compound 10 µM, first compound 0.001 µM
[23] = second compound 10 µM, first compound 0.00316 µM
[24] = second compound 10 µM, first compound 0.01 µM
[25] = second compound 10 µM, first compound 0.0316 µM
[26] = second compound 0.1 µM, first compound 0.1 µM
[27] = second compound 0.316 µM, first compound 0.1 µM
[28] = second compound 1 µM, first compound 0.1 µM
[29] = second compound 3.16 µM, first compound 0.1 µM
[30] = second compound 10 µM, first compound 0.1 µM
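Note: drug exposure lasted seven days.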
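Throughout, for viability, T/C: 100% = DMSO vehicle wells and lower means fewer viable cells.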

For `CC(=O)Nc1cccc(-n2c(=O)n(C3CC3)c(=O)c3c(Nc4ccc(I)cc4F)n(C)c(=O)c(C)c32)c1` + COc1cc2nc(C)nc(NC(C)c3cc(N)cc(C(F)(F)F)c3)c2cc1OC1CCOC1, the IC50 (second compound 0.1 µM) was 16.7 nM, the IC50 (second compound 0.316 µM) was 10.2 nM and the IC50 (second compound 1 µM) was 12.3 nM. It also gave an IC50 (second compound 3.16 µM) of 6.23 nM, an IC50 (second compound 10 µM) of under 0.1 nM and a viability, T/C (second compound 0.1 µM, first compound 0.0001 µM) of 88%. It also gave a viability, T/C [1] of 88.4%, a viability, T/C [2] of 92.4% and a viability, T/C [3] of 81.7%. It also gave a viability, T/C [4] of 60.7%, a viability, T/C [5] of 36.9% and a viability, T/C (second compound 0.316 µM, first compound 0.0001 µM) of 88.1%. For the same compound, the viability, T/C [6] was 83.6%, the viability, T/C [7] was 75.3% and the viability, T/C [8] was 67.1%. It also gave a viability, T/C [9] of 48.8%, a viability, T/C [10] of 37.4% and a viability, T/C (second compound 1 µM, first compound 0.0001 µM) of 81.4%. For the same compound, the viability, T/C [11] was 86.6%, the viability, T/C [12] was 81.1% and the viability, T/C [13] was 67.5%. For the same compound, the viability, T/C [14] was 55.4%, the viability, T/C [15] was 31.8% and the viability, T/C (second compound 3.16 µM, first compound 0.0001 µM) was 72.6%. The viability, T/C [16] was 79.3%, the viability, T/C [17] was 76.7% and the viability, T/C [18] was 54.6%. For the same compound, the viability, T/C [19] was 45.5%, the viability, T/C [20] was 21.8% and the viability, T/C (second compound 10 µM, first compound 0.0001 µM) was 20.7%. For the same compound, the viability, T/C [21] was 21.2%, the viability, T/C [22] was 10.6% and the viability, T/C [23] was 1.6%. It also gave a viability, T/C [24] of 4.51% and a viability, T/C [25] of 2.2%.

`CC(C)n1nc(-c2ccc3oc(N)nc3c2)c2c(N)ncnc21` + COc1cc2nc(C)nc(NC(C)c3cc(N)cc(C(F)(F)F)c3)c2cc1OC1CCOC1 gave an IC50 (second compound 0.1 µM) of 97.5 nM, an IC50 (second compound 0.316 µM) of 94.7 nM and an IC50 (second compound 1 µM) of 92 nM. The IC50 (second compound 3.16 µM) was 56.6 nM, the IC50 (second compound 10 µM) was under 0.316 nM and the viability, T/C [1] was 96.3%. The viability, T/C [2] was 96%, the viability, T/C [3] was 79.9% and the viability, T/C [4] was 73.8%. The viability, T/C [5] was 63.9%, the viability, T/C [26] was 49.1% and the viability, T/C [6] was 101%. For the same compound, the viability, T/C [7] was 85.9%, the viability, T/C [8] was 80% and the viability, T/C [9] was 69.6%. It also gave a viability, T/C [10] of 64.6%, a viability, T/C [27] of 47.3% and a viability, T/C [11] of 94.8%. It also gave a viability, T/C [12] of 87.1%, a viability, T/C [13] of 74.8% and a viability, T/C [14] of 75.1%. For the same compound, the viability, T/C [15] was 63%, the viability, T/C [28] was 46.8% and the viability, T/C [16] was 64.9%. The viability, T/C [17] was 66.8%, the viability, T/C [18] was 63.5% and the viability, T/C [19] was 60.1%. For the same compound, the viability, T/C [20] was 61.6%, the viability, T/C [29] was 39.5% and the viability, T/C [21] was 32%. The viability, T/C [22] was 24.6%, the viability, T/C [23] was 68.8% and the viability, T/C [24] was 60.7%. It also gave a viability, T/C [25] of 45.5% and a viability, T/C [30] of 39.6%.

`CC1(C)CCC(CN2CCN(c3ccc(C(=O)NS(=O)(=O)c4ccc(NCC5CCOCC5)c([N+](=O)[O-])c4)c(Oc4cnc5[nH]ccc5c4)c3)CC2)=C(c2ccc(Cl)cc2)C1` + COc1cc2nc(C)nc(NC(C)c3cc(N)cc(C(F)(F)F)c3)c2cc1OC1CCOC1 gave an IC50 (second compound 0.1 µM) of 8210 nM, an IC50 (second compound 0.316 µM) of 8720 nM and an IC50 (second compound 1 µM) of 6080 nM. For the same compound, the IC50 (second compound 3.16 µM) was 2810 nM, the IC50 (second compound 10 µM) was under 31.6 nM and the viability, T/C [5] was 103%. The viability, T/C [26] was 100%, the viability, T/C (second compound 0.1 µM, first compound 0.316 µM) was 91.6% and the viability, T/C (second compound 0.1 µM, first compound 1 µM) was 107%. For the same compound, the viability, T/C (second compound 0.1 µM, first compound 3.16 µM) was 77.8%, the viability, T/C (second compound 0.1 µM, first compound 10 µM) was 44.3% and the viability, T/C [10] was 90.8%. The viability, T/C [27] was 102%, the viability, T/C (second compound 0.316 µM, first compound 0.316 µM) was 95.7% and the viability, T/C (second compound 0.316 µM, first compound 1 µM) was 81.7%. It also gave a viability, T/C (second compound 0.316 µM, first compound 3.16 µM) of 70.5%, a viability, T/C (second compound 0.316 µM, first compound 10 µM) of 47.1% and a viability, T/C [15] of 90.1%. It also gave a viability, T/C [28] of 99.3%, a viability, T/C (second compound 1 µM, first compound 0.316 µM) of 88.1% and a viability, T/C (second compound 1 µM, first compound 1 µM) of 89.5%. For the same compound, the viability, T/C (second compound 1 µM, first compound 3.16 µM) was 63.1%, the viability, T/C (second compound 1 µM, first compound 10 µM) was 40% and the viability, T/C [20] was 68.9%. For the same compound, the viability, T/C [29] was 67.5%, the viability, T/C (second compound 3.16 µM, first compound 0.316 µM) was 69.3% and the viability, T/C (second compound 3.16 µM, first compound 1 µM) was 74%. The viability, T/C (second compound 3.16 µM, first compound 3.16 µM) was 47.7%, the viability, T/C (second compound 3.16 µM, first compound 10 µM) was 30.3% and the viability, T/C [25] was 19.5%. For the same compound, the viability, T/C [30] was 23.6%, the viability, T/C (second compound 10 µM, first compound 0.316 µM) was 17.3% and the viability, T/C (second compound 10 µM, first compound 1 µM) was 31.4%. The viability, T/C (second compound 10 µM, first compound 3.16 µM) was 18.6% and the viability, T/C (second compound 10 µM, first compound 10 µM) was 4.55%.
